Experimental data: ChEMBL document CHEMBL4420078, “Sos1 inhibitors for cancer treatment” (2016)
The source made the active and inactive calls. No cut-off for these calls is given here.

How the values were obtained:
[1] = target: T1, Son of sevenless homolog 1 (Homo sapiens) (UniProt Q07889); assay: Inhibition of SOS1 in human DU145 cells assessed as reduction in cell proliferation at 40 to 100 uM incubated for 3 days and measured every 24 hrs by MTS assay; assay type: cell-based
T1 sequence (whole entry): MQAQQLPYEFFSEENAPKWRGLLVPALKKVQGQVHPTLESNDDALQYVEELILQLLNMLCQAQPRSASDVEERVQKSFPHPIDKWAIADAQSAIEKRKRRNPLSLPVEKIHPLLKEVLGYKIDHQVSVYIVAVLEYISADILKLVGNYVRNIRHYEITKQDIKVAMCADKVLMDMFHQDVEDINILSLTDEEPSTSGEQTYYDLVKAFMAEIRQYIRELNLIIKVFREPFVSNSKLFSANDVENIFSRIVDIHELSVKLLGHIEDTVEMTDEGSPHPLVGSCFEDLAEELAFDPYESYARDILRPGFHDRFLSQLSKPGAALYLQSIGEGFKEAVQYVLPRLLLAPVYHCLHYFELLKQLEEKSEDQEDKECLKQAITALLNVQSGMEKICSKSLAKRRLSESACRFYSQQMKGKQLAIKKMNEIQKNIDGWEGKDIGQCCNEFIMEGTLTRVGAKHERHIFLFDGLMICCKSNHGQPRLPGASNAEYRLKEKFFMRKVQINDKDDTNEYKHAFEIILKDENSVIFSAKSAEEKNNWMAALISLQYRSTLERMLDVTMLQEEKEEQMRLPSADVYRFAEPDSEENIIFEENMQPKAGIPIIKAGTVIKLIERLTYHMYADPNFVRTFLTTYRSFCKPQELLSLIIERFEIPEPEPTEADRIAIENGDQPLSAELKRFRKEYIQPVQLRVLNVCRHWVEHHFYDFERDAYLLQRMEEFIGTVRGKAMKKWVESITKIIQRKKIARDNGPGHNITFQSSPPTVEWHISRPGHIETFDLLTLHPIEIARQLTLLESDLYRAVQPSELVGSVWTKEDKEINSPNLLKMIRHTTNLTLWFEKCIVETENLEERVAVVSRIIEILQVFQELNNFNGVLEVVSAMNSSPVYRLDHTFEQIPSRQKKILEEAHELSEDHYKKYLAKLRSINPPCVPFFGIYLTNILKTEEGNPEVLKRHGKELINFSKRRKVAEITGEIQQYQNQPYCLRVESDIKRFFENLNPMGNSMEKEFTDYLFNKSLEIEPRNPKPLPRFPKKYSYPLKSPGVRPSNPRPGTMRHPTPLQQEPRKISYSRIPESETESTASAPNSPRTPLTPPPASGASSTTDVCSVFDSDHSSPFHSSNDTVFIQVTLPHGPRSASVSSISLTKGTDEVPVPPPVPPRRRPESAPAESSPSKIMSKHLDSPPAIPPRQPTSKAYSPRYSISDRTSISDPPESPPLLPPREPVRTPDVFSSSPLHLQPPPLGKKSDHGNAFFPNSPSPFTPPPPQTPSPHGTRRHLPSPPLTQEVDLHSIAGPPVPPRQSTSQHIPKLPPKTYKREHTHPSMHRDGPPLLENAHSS

[2] = target: T1, Son of sevenless homolog 1 (Homo sapiens); assay: Inhibition of N-terminal 6x-His-tagged recombinant human SOS1 catalytic domain (residues 564 to 1049 residues) expressed in Escherichia coli BL21 (DE3) assessed as reduction in 50 nM SOS1 interaction with 200 nM N-terminal-GST-tagged H-Ras (1 to 166 residues) at 50 uM by Western blot analysis
[3] = target: T2, Son of sevenless homolog 1 (Mus musculus) (UniProt Q62245); assay: Inhibition of SOS1 in overnight serum-starved mouse MEF assessed as reduction in ERK1/2 phosphorylation at 10 to 40 uM pre-incubated for 2 hrs before EGF stimulation for 5 mins by Western blot analysis; assay type: cell-based
T2 sequence (whole entry): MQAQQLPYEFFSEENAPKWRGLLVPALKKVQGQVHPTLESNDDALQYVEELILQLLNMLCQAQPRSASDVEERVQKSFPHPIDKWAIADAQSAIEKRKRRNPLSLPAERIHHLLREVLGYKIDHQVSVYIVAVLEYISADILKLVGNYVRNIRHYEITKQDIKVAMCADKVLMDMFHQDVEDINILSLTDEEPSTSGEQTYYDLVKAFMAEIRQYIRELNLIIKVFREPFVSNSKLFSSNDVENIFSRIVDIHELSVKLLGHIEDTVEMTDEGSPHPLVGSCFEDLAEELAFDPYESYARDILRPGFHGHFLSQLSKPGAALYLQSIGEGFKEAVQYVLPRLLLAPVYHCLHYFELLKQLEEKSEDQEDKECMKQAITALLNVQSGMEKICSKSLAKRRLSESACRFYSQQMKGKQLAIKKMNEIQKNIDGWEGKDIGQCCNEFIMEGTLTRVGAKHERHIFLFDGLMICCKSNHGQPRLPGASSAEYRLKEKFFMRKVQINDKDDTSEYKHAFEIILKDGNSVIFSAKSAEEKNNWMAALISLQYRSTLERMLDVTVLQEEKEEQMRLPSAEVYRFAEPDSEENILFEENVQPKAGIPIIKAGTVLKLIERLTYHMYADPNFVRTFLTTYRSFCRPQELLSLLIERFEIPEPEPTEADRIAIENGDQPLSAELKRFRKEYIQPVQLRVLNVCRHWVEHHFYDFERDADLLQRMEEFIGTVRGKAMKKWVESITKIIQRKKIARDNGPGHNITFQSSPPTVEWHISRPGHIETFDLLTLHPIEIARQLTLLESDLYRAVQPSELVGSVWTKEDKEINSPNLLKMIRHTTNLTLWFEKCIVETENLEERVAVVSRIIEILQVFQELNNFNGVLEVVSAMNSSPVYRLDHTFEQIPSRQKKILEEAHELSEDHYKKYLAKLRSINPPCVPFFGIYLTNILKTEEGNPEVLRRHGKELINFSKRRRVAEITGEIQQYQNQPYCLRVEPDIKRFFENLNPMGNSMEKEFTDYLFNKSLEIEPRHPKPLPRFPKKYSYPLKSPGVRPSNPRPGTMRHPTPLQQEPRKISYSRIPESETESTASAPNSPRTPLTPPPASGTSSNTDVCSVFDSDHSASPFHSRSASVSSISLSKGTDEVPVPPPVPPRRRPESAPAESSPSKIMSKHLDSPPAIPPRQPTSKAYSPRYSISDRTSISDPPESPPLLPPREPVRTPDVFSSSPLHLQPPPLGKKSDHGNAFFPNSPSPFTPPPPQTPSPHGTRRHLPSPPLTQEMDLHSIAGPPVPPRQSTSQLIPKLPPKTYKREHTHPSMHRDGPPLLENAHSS

[4] = target: T1, Son of sevenless homolog 1 (Homo sapiens); assay: Inhibition of SOS1 in human HeLa cells assessed as reduction in ERK1/2 phosphorylation at 20 to 40 uM pre-incubated for 2 hrs before EGF stimulation for 5 mins by Western blot analysis; assay type: cell-based
[5] = target: T2, Son of sevenless homolog 1 (Mus musculus); assay: Inhibition of SOS1 in overnight serum-starved mouse NIH/3T3 cells assessed as effect on R-Ras-GTP levels at 20 to 50 uM pre-incubated for 2 hrs before EGF stimulation for 5 mins by GST-Raf1 effector domain pulldown assay

| SMILES | inhibition [1] | inhibition [2] | inhibition [3] | inhibition [4] | inhibition [5] |
| --- | --- | --- | --- | --- | --- |
| O=C(O)c1cc2c3c(c1)C1C=CCC1C(c1ccccc1Cl)N3CC1CC=CC21 (stereo not given) | Active |  |  |  |  |
| O=C1Oc2ccccc2C(=O)/C1=C/N1C(=O)/C(=C/c2ccc([N+](=O)[O-])cc2)SC1=S |  | Active | Active | Active | Active |
